Results: PubChem BioAssay (NCI)
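Each compound was tested at five concentrations against cells in 96-well plates for 48 hours. GI50 marks 50% less growth. TGI denotes the concentration required for complete inhibition of growth.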

How the values were obtained:
Assay in all cases: NCI tumour cell line growth inhibition, 48 h
[1] = system: HOP-62 NSCLC
[2] = system: NCI-H460 lung
[3] = system: COLO 205 colon
[4] = system: SN12C renal
[5] = system: SR leukemia
[6] = system: RPMI-8226 leukemia
[7] = system: CAKI-1 renal
[8] = system: OVCAR-4 ovarian
[9] = system: UACC-257 melanoma
[10] = system: LOX IMVI melanoma
[11] = system: MDA-N
[12] = system: MDA-MB-435
[13] = system: SK-MEL-2 melanoma
[14] = system: OVCAR-8 ovarian
[15] = system: CCRF-CEM leukemia
[16] = system: HCT-15 colon
[17] = system: NCI-H23 lung
[18] = system: DU-145 prostate
[19] = system: TK-10 renal
[20] = system: HCT-116 colon
[21] = system: SK-MEL-28 melanoma
[22] = system: UO-31 renal
[23] = system: MCF7 breast
[24] = system: KM12 colon
[25] = system: A549 NSCLC
[26] = system: OVCAR-3 ovarian
[27] = system: SK-MEL-5 melanoma
[28] = system: NCI/ADR-RES ovarian
[29] = system: MALME-3M melanoma
[30] = system: MDA-MB-231 breast
[31] = system: SF-295 CNS
[32] = system: 786-0 renal
[33] = system: U251 CNS
[34] = system: EKVX NSCLC
[35] = system: HCC-2998 colon
[36] = system: M14 melanoma
[37] = system: HL-60(TB) leukemia
[38] = system: SNB-19 CNS
[39] = system: ACHN renal
[40] = system: MOLT-4 leukemia
[41] = system: BT-549 breast
[42] = system: K-562 leukemia
[43] = system: OVCAR-5 ovarian
[44] = system: HT29 colon
[45] = system: RXF 393 renal
[46] = system: SW-620 colon
[47] = system: UACC-62 melanoma
[48] = system: SF-539 CNS
[49] = system: NCI-H226 lung
[50] = system: SNB-75 CNS
[51] = system: PC-3 prostate
[52] = system: NCI-H522 lung
[53] = system: SF-268 CNS
[54] = system: IGROV1 ovarian
[55] = system: HOP-92 NSCLC
[56] = system: A498 renal
[57] = system: SK-OV-3 ovarian
[58] = system: T-47D breast
[59] = system: HS 578T breast

O=C1OC[C@@H]2Cc3cc4c(cc3[C@H](c3ccc5c(c3)OCO5)[C@@H]12)OCO4
TGI [1]: > 25 µM | TGI [2]: > 25 µM | TGI [3]: > 25 µM | TGI [4]: > 25 µM | TGI [5]: > 25 µM | TGI [6]: > 25 µM | TGI [7]: > 25 µM | TGI [8]: > 25 µM | TGI [9]: > 25 µM | TGI [10]: > 25 µM | TGI [11]: 21.6 µM | TGI [12]: > 25 µM | TGI [13]: > 25 µM | TGI [14]: > 25 µM | TGI [15]: > 25 µM | TGI [16]: > 25 µM | TGI [17]: > 25 µM | TGI [18]: > 25 µM | TGI [19]: > 25 µM | TGI [20]: > 25 µM | TGI [21]: > 25 µM | TGI [22]: > 25 µM | TGI [23]: > 25 µM | TGI [24]: > 25 µM | TGI [25]: > 25 µM | TGI [26]: > 25 µM | TGI [27]: > 25 µM | TGI [28]: > 25 µM | TGI [29]: > 25 µM | TGI [30]: > 25 µM | TGI [31]: > 25 µM | TGI [32]: > 25 µM | TGI [33]: > 25 µM | TGI [34]: > 25 µM | TGI [35]: > 25 µM | TGI [36]: > 25 µM | TGI [37]: > 25 µM | TGI [38]: > 25 µM | TGI [39]: > 25 µM | TGI [40]: > 25 µM | TGI [41]: > 25 µM | TGI [42]: > 25 µM | TGI [43]: > 25 µM | TGI [44]: > 25 µM

COc1ccc(C2CC(=O)CC(c3ccc(OC)cc3)C23C(=O)NC(=O)NC3=O)cc1 (stereo not drawn)
TGI [1]: 82.2 µM | TGI [2]: > 100 µM | TGI [3]: 89 µM | TGI [4]: 97.9 µM | TGI [5]: > 100 µM | TGI [7]: 65.3 µM | TGI [8]: > 100 µM | TGI [9]: > 100 µM | TGI [10]: > 100 µM | TGI [11]: 86.4 µM | TGI [12]: 61.6 µM | TGI [13]: 46.7 µM | TGI [14]: > 100 µM | TGI [15]: > 100 µM | TGI [16]: > 100 µM | TGI [17]: 64.7 µM | TGI [45]: > 100 µM | TGI [18]: > 100 µM | TGI [19]: > 100 µM | TGI [20]: > 100 µM | TGI [46]: 50.2 µM | TGI [21]: 43.7 µM | TGI [22]: > 100 µM | TGI [47]: > 100 µM | TGI [48]: > 100 µM | TGI [23]: > 100 µM | TGI [24]: 72.9 µM | TGI [49]: > 100 µM | TGI [26]: 44.4 µM | TGI [50]: 67.1 µM | TGI [27]: 68 µM | TGI [51]: > 100 µM | TGI [52]: 60.2 µM | TGI [28]: > 100 µM | TGI [29]: 73 µM | TGI [30]: 85 µM | TGI [53]: > 100 µM | TGI [31]: > 100 µM | TGI [32]: > 100 µM | TGI [33]: > 100 µM | TGI [54]: 80 µM | TGI [34]: > 100 µM | TGI [35]: 45.7 µM | TGI [36]: > 100 µM | TGI [37]: 81 µM | TGI [55]: 78.5 µM | TGI [38]: > 100 µM | TGI [39]: 78.1 µM | TGI [40]: 64.8 µM | TGI [41]: > 100 µM | TGI [42]: > 100 µM | TGI [43]: > 100 µM | TGI [44]: > 100 µM

COc1ccc2c(c1)CCC1C2CC[C@@]2(C)C1CC1=CC(COC(C)=O)C3C(=O)c4ccccc4C(=O)C3C12 (stereo partly drawn)
GI50 [56]: > 100 µM | TGI [56]: > 100 µM | GI50 [1]: > 100 µM | TGI [1]: > 100 µM | GI50 [2]: > 100 µM | TGI [2]: > 100 µM | GI50 [3]: > 100 µM | TGI [3]: > 100 µM | GI50 [4]: > 100 µM | TGI [4]: > 100 µM | GI50 [5]: > 100 µM | TGI [5]: > 100 µM | GI50 [6]: 51.2 µM | TGI [6]: > 100 µM | GI50 [7]: > 100 µM | TGI [7]: > 100 µM | GI50 [8]: > 100 µM | TGI [8]: > 100 µM | GI50 [57]: > 100 µM | TGI [57]: > 100 µM | GI50 [9]: > 100 µM | TGI [9]: > 100 µM | GI50 [10]: > 100 µM | TGI [10]: > 100 µM | GI50 [12]: > 100 µM | TGI [12]: > 100 µM | GI50 [13]: > 100 µM | TGI [13]: > 100 µM | GI50 [14]: > 100 µM | TGI [14]: > 100 µM | GI50 [58]: 90.6 µM | TGI [58]: > 100 µM | GI50 [15]: > 100 µM | TGI [15]: > 100 µM | GI50 [16]: > 100 µM | TGI [16]: > 100 µM | GI50 [17]: > 100 µM | TGI [17]: > 100 µM | GI50 [45]: 59.8 µM | TGI [45]: > 100 µM | GI50 [18]: > 100 µM | TGI [18]: > 100 µM | GI50 [19]: > 100 µM | TGI [19]: > 100 µM | GI50 [20]: > 100 µM | TGI [20]: > 100 µM | GI50 [46]: > 100 µM | TGI [46]: > 100 µM | GI50 [21]: > 100 µM | TGI [21]: > 100 µM | GI50 [22]: 61.7 µM | TGI [22]: > 100 µM | GI50 [47]: 47.3 µM | TGI [47]: > 100 µM | GI50 [48]: > 100 µM | TGI [48]: > 100 µM | GI50 [23]: > 100 µM | TGI [23]: > 100 µM | GI50 [24]: > 100 µM | TGI [24]: > 100 µM | GI50 [25]: > 100 µM | TGI [25]: > 100 µM | GI50 [49]: > 100 µM | TGI [49]: > 100 µM | GI50 [26]: > 100 µM | TGI [26]: > 100 µM | GI50 [50]: 36.3 µM | TGI [50]: > 100 µM | GI50 [27]: > 100 µM | TGI [27]: > 100 µM | GI50 [51]: 48.4 µM | TGI [51]: > 100 µM | GI50 [52]: > 100 µM | TGI [52]: > 100 µM | GI50 [28]: > 100 µM | TGI [28]: > 100 µM | GI50 [59]: 89 µM | TGI [59]: > 100 µM | GI50 [29]: > 100 µM | TGI [29]: > 100 µM | GI50 [30]: 52.4 µM | TGI [30]: > 100 µM | GI50 [53]: > 100 µM | TGI [53]: > 100 µM | GI50 [31]: > 100 µM | TGI [31]: > 100 µM | GI50 [32]: > 100 µM | TGI [32]: > 100 µM | GI50 [33]: > 100 µM | TGI [33]: > 100 µM | GI50 [54]: > 100 µM | TGI [54]: > 100 µM | GI50 [34]: > 100 µM | TGI [34]: > 100 µM | GI50 [35]: > 100 µM | TGI [35]: > 100 µM | GI50 [36]: > 100 µM | TGI [36]: > 100 µM | GI50 [37]: 76.3 µM | TGI [37]: > 100 µM | GI50 [55]: 1430 nM | TGI [55]: 49.7 µM | GI50 [38]: > 100 µM | TGI [38]: > 100 µM | GI50 [39]: 47.9 µM | TGI [39]: > 100 µM | GI50 [40]: > 100 µM | TGI [40]: > 100 µM | GI50 [41]: > 100 µM | TGI [41]: > 100 µM | GI50 [42]: 64.1 µM | TGI [42]: > 100 µM | GI50 [43]: > 100 µM | TGI [43]: > 100 µM | GI50 [44]: 94.9 µM | TGI [44]: > 100 µM
